From ChEMBL document CHEMBL1149275, “Structure-activity relationships of acetylcholinesterase noncovalent inhibitors based on a polyamine backbone. 3. Effect of replacing the inner polymethylene chain with cyclic moieties” (J Med Chem, 2004)

What was measured:
[1] = target: Acetylcholinesterase (Homo sapiens, UniProt P22303)
Description: Inhibition of human recombinant AChE

[2] = target: Cholinesterase (Homo sapiens, UniProt P06276)
Description: Inhibition of human recombinant BChE

[3] = target: T1, Muscarinic acetylcholine receptor M2 (Homo sapiens) (UniProt P08172); conditions: Cavia porcellus; Cardiac atrium
T1 sequence (whole entry): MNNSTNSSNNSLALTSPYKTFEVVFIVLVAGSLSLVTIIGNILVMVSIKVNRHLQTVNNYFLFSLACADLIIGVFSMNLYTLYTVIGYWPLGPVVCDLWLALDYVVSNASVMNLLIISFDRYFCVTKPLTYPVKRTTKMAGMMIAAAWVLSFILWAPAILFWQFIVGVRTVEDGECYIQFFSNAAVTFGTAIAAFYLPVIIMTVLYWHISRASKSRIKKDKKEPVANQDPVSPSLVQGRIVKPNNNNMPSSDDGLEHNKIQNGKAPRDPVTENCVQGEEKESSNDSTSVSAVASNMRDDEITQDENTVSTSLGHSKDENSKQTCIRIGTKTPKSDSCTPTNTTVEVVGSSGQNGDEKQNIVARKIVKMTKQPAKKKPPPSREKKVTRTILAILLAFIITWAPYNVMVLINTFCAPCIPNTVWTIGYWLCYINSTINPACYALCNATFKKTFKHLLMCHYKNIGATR
Description: Antagonist activity at muscarinic M2 receptor assessed as contraction of electrically stimulated guinea pig left atrium at 10 uM

Chain of Cholinesterase (P06276 whole entry): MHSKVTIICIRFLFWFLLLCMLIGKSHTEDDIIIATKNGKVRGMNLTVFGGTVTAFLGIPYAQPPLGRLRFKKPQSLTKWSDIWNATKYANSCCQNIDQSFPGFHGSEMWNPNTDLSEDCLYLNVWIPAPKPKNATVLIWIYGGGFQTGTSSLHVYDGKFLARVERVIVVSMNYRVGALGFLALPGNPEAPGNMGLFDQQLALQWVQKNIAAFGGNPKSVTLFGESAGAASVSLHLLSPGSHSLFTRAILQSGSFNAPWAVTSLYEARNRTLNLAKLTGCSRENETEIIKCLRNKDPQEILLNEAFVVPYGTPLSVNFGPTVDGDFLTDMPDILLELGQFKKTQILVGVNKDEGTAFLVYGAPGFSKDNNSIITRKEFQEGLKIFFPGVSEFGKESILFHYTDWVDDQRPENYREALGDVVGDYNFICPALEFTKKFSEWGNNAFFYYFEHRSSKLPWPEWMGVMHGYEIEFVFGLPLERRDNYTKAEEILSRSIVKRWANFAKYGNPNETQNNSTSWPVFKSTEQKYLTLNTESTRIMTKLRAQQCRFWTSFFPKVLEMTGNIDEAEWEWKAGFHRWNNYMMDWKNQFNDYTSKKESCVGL
Chain of Acetylcholinesterase (P22303 whole entry): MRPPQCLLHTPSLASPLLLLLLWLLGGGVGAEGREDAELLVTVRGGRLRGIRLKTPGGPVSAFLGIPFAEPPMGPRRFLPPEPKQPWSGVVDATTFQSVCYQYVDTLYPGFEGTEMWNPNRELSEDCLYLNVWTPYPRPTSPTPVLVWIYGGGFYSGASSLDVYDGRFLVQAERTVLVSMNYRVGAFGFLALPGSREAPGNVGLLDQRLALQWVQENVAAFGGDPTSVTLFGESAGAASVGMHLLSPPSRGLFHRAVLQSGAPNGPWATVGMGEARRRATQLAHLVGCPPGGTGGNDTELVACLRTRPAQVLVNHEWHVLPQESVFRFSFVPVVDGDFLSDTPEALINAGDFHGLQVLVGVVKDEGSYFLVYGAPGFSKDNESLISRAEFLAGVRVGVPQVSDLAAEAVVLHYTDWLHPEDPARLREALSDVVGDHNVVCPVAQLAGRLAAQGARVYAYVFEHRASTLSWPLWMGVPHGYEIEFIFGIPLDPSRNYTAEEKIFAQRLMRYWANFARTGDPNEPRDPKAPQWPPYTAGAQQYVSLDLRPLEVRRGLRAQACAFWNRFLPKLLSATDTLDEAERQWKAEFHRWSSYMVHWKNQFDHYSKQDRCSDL

## CC[N+](C)(CCCCCC(=O)Nc1ccc(CCc2ccc(NC(=O)CCCCC[N+](C)(CC)Cc3ccccc3OC)cc2)cc1)Cc1ccccc1OC (stereo not given)
[1]
  IC50: 120 nM
[2]
  IC50: 1100 nM

## CCN(CCCCCC(=O)Nc1ccc(CCc2ccc(NC(=O)CCCCCN(CC)Cc3ccccc3OC)cc2)cc1)Cc1ccccc1OC
[1]
  IC50: 170 nM
[2]
  IC50: 1700 nM

## CCN(CCCCCC(=O)Nc1ccc(-c2ccc(NC(=O)CCCCCN(CC)Cc3ccccc3OC)cc2)cc1)Cc1ccccc1OC
[1]
  IC50: 36.3 nM
[2]
  IC50: 1860 nM

## CCN(CCCCCC(=O)Nc1ccc(Cc2ccc(NC(=O)CCCCCN(CC)Cc3ccccc3OC)cc2)cc1)Cc1ccccc1OC
[1]
  IC50: 63.1 nM
[2]
  IC50: 1820 nM

## CCN(CCCCCCNc1ccc(CCc2ccc(NCCCCCCN(CC)Cc3ccccc3OC)cc2)cc1)Cc1ccccc1OC
[1]
  IC50: 30900 nM
[2]
  IC50: 95500 nM

## CCN(CCCCCC(=O)N1CCC(C2CCN(C(=O)CCCCCN(CC)Cc3ccccc3OC)CC2)CC1)Cc1ccccc1OC
[1]
  IC50: 3.31 nM
  Ki: 5.67 nM
[2]
  IC50: 8510 nM
[3]
  pKb: 6.18

## CCN(CCCCCC(=O)N1CCC(CCCC2CCN(C(=O)CCCCCN(CC)Cc3ccccc3OC)CC2)CC1)Cc1ccccc1OC
[1]
  IC50: 6.61 nM
[2]
  IC50: 3390 nM

## CCN(CCCCCC(=O)N1CCC(CCC2CCN(C(=O)CCCCCN(CC)Cc3ccccc3OC)CC2)CC1)Cc1ccccc1OC
[1]
  IC50: 7.41 nM
[2]
  IC50: 3630 nM

## CCN(CCCCCCNc1ccc(-c2ccc(NCCCCCCN(CC)Cc3ccccc3OC)cc2)cc1)Cc1ccccc1OC
[1]
  IC50: 2630 nM
[2]
  IC50: 15500 nM

## CC[N+](C)(CCCCCC(=O)N1CCC(CCCC2CCN(C(=O)CCCCC[N+](C)(CC)Cc3ccccc3OC)CC2)CC1)Cc1ccccc1OC (stereo not given)
[1]
  IC50: 5.75 nM
[2]
  IC50: 661 nM

## COc1ccccc1CN(C)CCCCCC(=O)N(C)CCCCCCCCN(C)C(=O)CCCCCN(C)Cc1ccccc1OC
[3]
  pKb: 6.39

## CCN(CCCCCC(=O)N(C)CCCCCCCCN(C)C(=O)CCCCCN(CC)Cc1ccccc1OC)Cc1ccccc1OC
[3]
  pKb: 5.65

## CCN(CCCCCCNc1ccc(Cc2ccc(NCCCCCCN(CC)Cc3ccccc3OC)cc2)cc1)Cc1ccccc1OC
[1]
  IC50: 1070 nM
[2]
  IC50: 1620 nM

## CC[N+](C)(CCCCCC(=O)N1CCC(CCC2CCN(C(=O)CCCCC[N+](C)(CC)Cc3ccccc3OC)CC2)CC1)Cc1ccccc1OC (stereo not given)
[1]
  IC50: 5.75 nM
[2]
  IC50: 1860 nM

## CCN(CCCCCC(=O)N1CCC(CC2CCN(C(=O)CCCCCN(CC)Cc3ccccc3OC)CC2)CC1)Cc1ccccc1OC
[1]
  IC50: 3.31 nM
[2]
  IC50: 6460 nM
